Data as given in article PMC5116089, “Sulfheme formation during homocysteine S-oxygenation by catalase in cancers and neurodegenerative diseases” (Nature Communications, 2016).

Key:
[1] = target: T1, Bovine liver catalase (Bos taurus, UniProt P00432); experiment: Catalase activity (H2O2 disappearance at 240 nm) as a function of thiol concentration; assay type: biochemical; settings: DTPA 0-10 mM, CAT 40 nM pre-incubated 120 min, 25 °C
T1 construct: Bovine liver catalase was also purchased from Sigma-Aldrich; purchased Sigma-Aldrich; host or cells: bovine liver
T1 sequence (P00432 2-527 limits assumed): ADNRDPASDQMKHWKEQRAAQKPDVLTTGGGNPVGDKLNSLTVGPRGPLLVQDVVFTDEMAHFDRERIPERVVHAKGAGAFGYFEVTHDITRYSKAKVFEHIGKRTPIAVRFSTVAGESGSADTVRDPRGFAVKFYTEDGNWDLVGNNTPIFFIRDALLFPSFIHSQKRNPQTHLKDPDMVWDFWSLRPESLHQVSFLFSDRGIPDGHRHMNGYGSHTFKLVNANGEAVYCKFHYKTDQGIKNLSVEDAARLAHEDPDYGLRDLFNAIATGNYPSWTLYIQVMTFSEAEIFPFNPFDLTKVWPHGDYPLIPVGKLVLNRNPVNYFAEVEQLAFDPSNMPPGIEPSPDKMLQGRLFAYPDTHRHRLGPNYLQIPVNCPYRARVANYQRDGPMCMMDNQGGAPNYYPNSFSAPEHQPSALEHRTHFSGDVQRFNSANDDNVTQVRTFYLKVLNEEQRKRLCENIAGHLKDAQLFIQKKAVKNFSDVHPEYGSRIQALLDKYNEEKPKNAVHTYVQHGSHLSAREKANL
Experimental: (§1) CAT activity was measured on an Uvikon 941 spectrophotometer equipped with a temperature controlled water bath (±1 °C) by following the disappearance of H2O2 at 240 nm over 30–120 s at 25 °C. Catalase activity was calculated based on the rate of decomposition of hydrogen peroxide, which is proportional to the reduction of the absorbance at 240 nm. Experiments were carried out in a 3 ml quartz cuvette containing 11.7 mM H2O2 in 50 mM KPi, pH 7.4±1 mM DTPA and the reaction was initiated by adding 0.3–0.6 pmoles of CAT. The effect of biological thiols on the activity of CAT under physiological conditions was determined from a solution of CAT (30–60 nM) preincubated at 25 °C for at least 120 min as a function thiol concentration (0–40 mM for HCys and Cys, 0–100 mM for GSH) in 50 mM KPi, pH 7.4, 1 mM DTPA. Control experiments (biological thiols alone) were also performed in parallel. In each case, 10 μl of the reaction mixture (biological thiols±CAT) was added to the cuvette containing the H2O2 solution to initiate the reaction. Similarly, the effect of biological thiols on the activity of CAT under pathological conditions was determined from a solution of CAT (30–60 nM) containing a 2.124±0.386 molar excess of iron that was preincubated with various concentrations of thiols (0–1 mM) for at least 120 min at 25 °C in 50 mM KP at pH 7.4. The relative half inhibitory concentration (IC50) values were obtained by plotting the relative activity of CAT (A, in per cent) as a function of the concentration of thiol-compounds (RSH) and by fitting the data with the following four parameter logistic equation: A=Amin+(Amax−Amin)/(1+([RSH]/IC50)^n), where Amax is the maximal activity of CAT (constrained at 100%), Amin is the minimum activity achieved at saturating concentration of RSH and n is the Hillslope that characterizes the slope of the curve at its midpoint. The inactivation rate (kinact, min^−1) was extracted from the time course of the inactivation of CAT bioactivity using a fixed concentration of HCys. Accordingly, a solution of CAT (3.5–5 μM) was incubated with 2 mM L-HCys in 50 mM KPi, pH 7.4, 1 mM DTPA. Aliquots (10 μl) were taken at intervals (0–480 min), diluted 1:50 in 50 mM KPi, pH 7.4, 1 mM DTPA and assayed for CAT activity as described above. Similar experiments were performed in the presence of DMPO, 5,5-dimethyl-1,3-cyclohexanedione (dimedone) or SOD at a final concentration of 100 mM, 4 mM or 40 U, respectively. kinact values were obtained by plotting the relative activity of CAT (A, in per cent) as a function of the incubation time and the data were fitted with an exponential decay function: A=A0+ΔA × e^−kinact × t, with A0 and ΔA (A0+ΔA=100%) the residual activity and the percentage of CAT inhibition when t→∞, respectively. The effect of NaSH on the consumption of H2O2 in cell lysates was determined from a solution of cell lysates (0.5–3 mg ml^−1) incubated on ice with various concentrations of NaSH (0–200 μM). The disappearance of H2O2 was then followed at 240 nm for 2–5 min at 25 °C after the addition of 20–25 μl of the reaction mixture in a 3 ml cuvette containing 11.7 mM H2O2 in 50 mM KPi, pH 7.4. The relative half inhibitory concentration (IC50) values for NaSH were obtained by plotting the relative rate of disappearance of H2O2 (ΔA240 nm/min) as a function of the concentration of NaSH and by fitting the data with an hyperbolic decay equation. All the experiments were performed at least in triplicate.

[2] = tested on: M17 human neuroblastoma cells; experiment: Relative specific activity of catalase (SpCAT) in cells treated with rotenone; assay type: cell-based; settings: BE2-M17 cells, 100 nM rotenone, 48 h
Experimental: Hek293T cells (n=2) were plated and transfected the following day with pcDNA (empty vector), Htt-N171-82Q (Htt) or Alpha-synuclein-A53T (α-Syn) plasmids (20 μg) with the calcium phosphate method. BE2-M17 cells (n=2) were plated and treated the following day with 100 nM rotenone dissolved in DMSO or DMSO alone. Hek293T and BE2-M17 cells were collected 48 h after transfection or treatment with DMSO±rotenone, respectively.
The relative specific activity (activity and quantity) of catalase in the cell lysates was determined using the kit ab118184 from Abcam (Cambridge, MA). The measurements were performed in duplicate as per the manufacturer's protocol. Briefly, catalase in cell lysates (0.1–0.2 mg cell lysates per assay) was immunocaptured within the wells of the microplate. An assay buffer, which contains H2O2 that reacts with a substrate to generate a luminescent product, was added to each well. […] Then, the quantity of catalase was measured by adding to each well an anti-catalase primary detector antibody. […] A blue colour (absorbance at 600 nm) developed in proportion to the amount of catalase bound. Luminescence and absorbance measurements were performed on an EnSpire Multilabel Reader 2300 (PerkinElmer). […] The protocol above was then followed to determine activity measurement and catalase quantification.

[3] = target: T1, Bovine liver catalase; experiment: Time course of catalase inactivation by HCys (activity test); assay type: biochemical; settings: CAT + 2 mM HCys, 1 mM DTPA, pH 7.4, with the additive named (DMPO 100 mM, dimedone 4 mM, SOD 40 U); n=2±s.d.
Experimental: as §1, with “Similar experiments were performed in the presence of DMPO, 5,5-dimethyl-1,3-cyclohexanedione (dimedone) or SOD at a final concentration of 100 mM, 4 mM or 40 U, respectively. kinact values were obtained by plotting the relative activity of CAT (A, in per cent) as a function of the incubation time and the data were fitted with an exponential decay function: A=A0+ΔA × e^−kinact × t, with A0 and ΔA (A0+ΔA=100%) the residual activity and the percentage of CAT inhibition when t→∞, respectively.” left out, “The disappearance of H2O2 was then followed at 240 nm for 2–5 min at 25 °C after the addition of 20–25 μl of the reaction mixture in a 3 ml cuvette containing 11.7 mM H2O2 in 50 mM KPi, pH 7.4. The relative half inhibitory concentration (IC50) values for NaSH were obtained by plotting the relative rate of disappearance of H2O2 (ΔA240 nm/min) as a function of the concentration of NaSH and by fitting the data with an hyperbolic decay equation. All the experiments were performed at least in triplicate.” left out

[4] = target: T1, Bovine liver catalase; experiment: Comparative kinetic studies by ultraviolet-visible spectroscopy (compound II and Fe(II) sulfonium formation); assay type: biochemical; settings: CAT + 2 mM HCys, 1 mM DTPA, pH 7.4, with the additive named (dimedone 4 mM, BCN 0.1 mM, SOD 40 U)
Experimental: Ultraviolet–visible spectra were recorded on a Cary 300 Scan or an Uvikon 941 spectrophotometer equipped with a temperature equilibrating water bath (±1 °C). Spectral changes over time were recorded when CAT was incubated with L-HCys (0.2 or 2 mM), L-Cys (0.2, 2 or 9 mM) or GSH (1 or 30 mM) at 25 °C in a 1 ml quartz cuvette containing a solution of CAT (2.7–5.9 μM) in 50 mM KPi, pH 7.4±1 mM DTPA. Due to half-site reactivity of biological thiols with CAT, the data were recorded versus a blank containing half the concentrations of CAT used in the experiments, that is, a solution of 1.35–2.95 μM CAT in 50 mM KPi at pH 7.4±1 mM DTPA. Reactions were initiated by addition of the thiol-containing compounds. Comparative kinetic studies were performed by incubating CAT ([…] in the experiment, 1.35–1.5 μM in the blank) with 2 mM L-HCys in 50 mM KPi, pH 7.4, 1 mM DTPA with or without […], 5,5-dimethyl-1,3-cyclohexanedione (dimedone, 4 mM), BCN (0.1 mM) or SOD, 40 U). All the experiments were performed at least in duplicate.

[5] = tested on: crypt and surface epithelial cells; experiment: Relative specific activity of catalase (SpCAT) in rodent model of DSS-induced colitis; assay type: in vivo, mice; settings: DSS 3.5% in drinking water for 5 days, cells isolated day 7
Experimental: Seven-week-old male C57BL/6J mice (n=6; Envigo, Gannat, France) were acclimated for 1 week with free access to standard mouse chow and tap water. Each mouse was maintained in a cage under controlled conditions of temperature (23 °C), humidity (55±10%) and light (12:12 h light–dark cycle). Colitis was induced by the addition of DSS (3.5% (wt/vol), 36,000–50,000 MW, MP Biomedicals Illkirch-Graffenstaden, France) to the drinking water for 5 days (n=3). Healthy control animals (n=3) received fresh tap water, only. Two days after DSS arrest (day 7), mice were killed. […]
The relative specific activity (activity and quantity) of catalase in the cell lysates was determined using the kit ab118184 from Abcam (Cambridge, MA). […] Then, the quantity of catalase was measured by adding to each well an anti-catalase primary detector antibody. […] A blue colour (absorbance at 600 nm) developed in proportion to the amount of catalase bound. Luminescence and absorbance measurements were performed on an EnSpire Multilabel Reader 2300 (PerkinElmer). […] The protocol above was then followed to determine activity measurement and catalase quantification.

## O=C(O)CN(CCN(CC(=O)O)CC(=O)O)CCN(CC(=O)O)CC(=O)O [DTPA, diethylene triamine pentaacetic acid]
[1]
  effect on the activity of CAT: does not interfere

## C=C(C)[C@H]1Cc2c(ccc3c2O[C@@H]2COc4cc(OC)c(OC)cc4[C@@H]2C3=O)O1 [rotenone]
[2]
  SpCAT versus control: inhibited

## CC1(C)CCC=[N+]1[O-] [DMPO, 5,5-Dimethyl-1-Pyrroline-N-Oxide]
[3]
  kinact: 0.00015 s⁻¹
[4]
  Ultraviolet–visible spectroscopy kobs(6) (CAT–Fe(IV)=O formation): 0.010 ± 0.002 min⁻¹

## Dextran Sulfate Sodium [DSS]
[5]
  SpCAT versus untreated mice: not modified

## superoxide dismutase [SOD]
[3]
  Activity test kinact: 0.018 ± 0.001 min⁻¹
[4]
  Ultraviolet–visible spectroscopy kobs(6) (CAT–Fe(IV)=O formation): 0.020 ± 0.002 min⁻¹

## CC1(C)CC(=O)CC(=O)C1 [Dimedone, 5,5-dimethyl-1,3-cyclohexanedione]
[3]
  kinact: 0.0003 s⁻¹
[4]
  Ultraviolet–visible spectroscopy kobs(6) (CAT–Fe(IV)=O formation): ^†0.019±0.003 min^−1

## bicyclo[6.1.0]nonyne [BCN]
[4]
  Ultraviolet–visible spectroscopy kobs(6) (CAT–Fe(IV)=O formation): 0.018 ± 0.002 min⁻¹
